Test results reported in the NIST ThermoML archive (doi:10.1021/je900387e).

Assay: xn = mol fraction of the nth substance listed
Conditions: Liquid, Pycnometric method

Cn1ccnc1 [1-methylimidazole] + O=C=O
Conditions	mass density [kg/m3]
313.1 K, 11200 kPa, x1 = 0.0247	802
313.1 K, 11280 kPa, x1 = 0.0487	852
313.1 K, 11440 kPa, x1 = 0.0487	855
313.1 K, 11540 kPa, x1 = 0.0102	771
313.1 K, 11540 kPa, x1 = 0.1024	928
313.1 K, 11580 kPa, x1 = 0.0247	811
313.1 K, 11620 kPa, x1 = 0.0487	858
313.1 K, 11740 kPa, x1 = 0.1024	930
313.1 K, 11790 kPa, x1 = 0.0487	860
313.1 K, 11980 kPa, x1 = 0.0487	862
313.1 K, 11990 kPa, x1 = 0.1024	933
313.1 K, 12000 kPa, x1 = 0.0247	819
313.1 K, 12070 kPa, x1 = 0.0102	786
313.1 K, 12180 kPa, x1 = 0.0487	865
313.1 K, 12320 kPa, x1 = 0.1024	936
313.1 K, 12490 kPa, x1 = 0.0247	828
313.1 K, 12620 kPa, x1 = 0.1024	939
313.1 K, 12700 kPa, x1 = 0.0102	800
313.1 K, 12970 kPa, x1 = 0.1024	942
313.1 K, 13010 kPa, x1 = 0.0247	837
313.1 K, 13280 kPa, x1 = 0.1024	944
313.1 K, 13460 kPa, x1 = 0.0102	816
313.1 K, 13600 kPa, x1 = 0.0247	846
313.1 K, 13660 kPa, x1 = 0.1024	947
313.1 K, 14020 kPa, x1 = 0.1024	950
313.1 K, 14280 kPa, x1 = 0.0247	855
313.1 K, 14340 kPa, x1 = 0.0102	832
313.1 K, 14430 kPa, x1 = 0.1024	954
313.1 K, 14780 kPa, x1 = 0.1024	956
313.1 K, 14970 kPa, x1 = 0.0247	865
313.1 K, 15010 kPa, x1 = 0.0102	842
313.1 K, 15210 kPa, x1 = 0.1024	959
313.1 K, 15360 kPa, x1 = 0.0247	870
313.1 K, 15650 kPa, x1 = 0.1024	963
313.1 K, 15790 kPa, x1 = 0.0247	875
313.1 K, 16150 kPa, x1 = 0.1024	966
313.1 K, 16220 kPa, x1 = 0.0247	880
313.1 K, 16560 kPa, x1 = 0.1024	969
313.1 K, 16690 kPa, x1 = 0.0247	885
313.1 K, 17100 kPa, x1 = 0.1024	972
313.1 K, 17540 kPa, x1 = 0.1024	975
313.1 K, 18150 kPa, x1 = 0.1024	979
313.1 K, 18570 kPa, x1 = 0.1024	981
313.1 K, 18940 kPa, x1 = 0.1024	983
317.9 K, 9730 kPa, x1 = 0.0102	555
317.9 K, 9780 kPa, x1 = 0.0102	563
317.9 K, 9850 kPa, x1 = 0.0102	573
317.9 K, 9910 kPa, x1 = 0.0102	583
317.9 K, 9990 kPa, x1 = 0.0102	594
317.9 K, 10080 kPa, x1 = 0.0102	606
317.9 K, 10180 kPa, x1 = 0.0102	618
317.9 K, 10180 kPa, x1 = 0.0247	708
317.9 K, 10300 kPa, x1 = 0.0102	630
317.9 K, 10340 kPa, x1 = 0.0247	716
317.9 K, 10440 kPa, x1 = 0.0102	643
317.9 K, 10490 kPa, x1 = 0.0247	723
317.9 K, 10620 kPa, x1 = 0.0102	656
317.9 K, 10640 kPa, x1 = 0.0247	730
317.9 K, 10810 kPa, x1 = 0.0102	670
317.9 K, 10810 kPa, x1 = 0.0247	737
317.9 K, 11000 kPa, x1 = 0.0247	744
317.9 K, 11050 kPa, x1 = 0.0102	684
317.9 K, 11220 kPa, x1 = 0.0247	751
317.9 K, 11330 kPa, x1 = 0.0102	699
317.9 K, 11460 kPa, x1 = 0.0247	758
317.9 K, 11510 kPa, x1 = 0.0487	815
317.9 K, 11590 kPa, x1 = 0.0487	817
317.9 K, 11680 kPa, x1 = 0.0102	715
317.9 K, 11700 kPa, x1 = 0.0487	820
317.9 K, 11710 kPa, x1 = 0.0247	766
317.9 K, 11820 kPa, x1 = 0.0487	822
317.9 K, 11960 kPa, x1 = 0.0247	774
317.9 K, 11970 kPa, x1 = 0.0487	825
317.9 K, 12080 kPa, x1 = 0.0487	827
317.9 K, 12100 kPa, x1 = 0.0102	731
317.9 K, 12210 kPa, x1 = 0.0487	830
317.9 K, 12290 kPa, x1 = 0.0247	781
317.9 K, 12350 kPa, x1 = 0.0487	833
317.9 K, 12480 kPa, x1 = 0.0487	836
317.9 K, 12640 kPa, x1 = 0.0102	749
317.9 K, 12640 kPa, x1 = 0.0487	838
317.9 K, 12820 kPa, x1 = 0.0247	793
317.9 K, 12930 kPa, x1 = 0.0487	843
317.9 K, 13150 kPa, x1 = 0.1024	919
317.9 K, 13260 kPa, x1 = 0.0102	766
317.9 K, 13300 kPa, x1 = 0.0487	849
317.9 K, 13400 kPa, x1 = 0.1024	922
317.9 K, 13440 kPa, x1 = 0.0247	806
317.9 K, 13660 kPa, x1 = 0.0487	854
317.9 K, 13720 kPa, x1 = 0.1024	925
317.9 K, 13980 kPa, x1 = 0.1024	927
317.9 K, 14030 kPa, x1 = 0.0487	860
317.9 K, 14060 kPa, x1 = 0.0102	785
317.9 K, 14140 kPa, x1 = 0.0247	819
317.9 K, 14310 kPa, x1 = 0.1024	930
317.9 K, 14450 kPa, x1 = 0.0487	866
317.9 K, 14560 kPa, x1 = 0.1024	933
317.9 K, 14670 kPa, x1 = 0.0247	828
317.9 K, 14710 kPa, x1 = 0.1024	934
317.9 K, 14880 kPa, x1 = 0.1024	936
317.9 K, 15050 kPa, x1 = 0.0102	806
317.9 K, 15130 kPa, x1 = 0.1024	938
317.9 K, 15280 kPa, x1 = 0.0247	837
317.9 K, 15330 kPa, x1 = 0.1024	939
317.9 K, 15480 kPa, x1 = 0.1024	941
317.9 K, 15570 kPa, x1 = 0.0247	841
317.9 K, 15630 kPa, x1 = 0.1024	942
317.9 K, 15890 kPa, x1 = 0.0102	821
317.9 K, 15920 kPa, x1 = 0.0247	846
317.9 K, 15950 kPa, x1 = 0.1024	944
317.9 K, 16260 kPa, x1 = 0.0247	851
317.9 K, 16380 kPa, x1 = 0.1024	947
317.9 K, 16620 kPa, x1 = 0.0247	855
317.9 K, 16800 kPa, x1 = 0.1024	950
317.9 K, 16910 kPa, x1 = 0.0102	837
317.9 K, 17010 kPa, x1 = 0.0247	860
317.9 K, 17180 kPa, x1 = 0.1024	953
317.9 K, 17600 kPa, x1 = 0.1024	956
317.9 K, 18050 kPa, x1 = 0.1024	959
317.9 K, 18370 kPa, x1 = 0.1024	962
317.9 K, 18750 kPa, x1 = 0.1024	964
317.9 K, 18990 kPa, x1 = 0.1024	965
322.7 K, 10720 kPa, x1 = 0.0102	558
322.7 K, 10820 kPa, x1 = 0.0102	568
322.7 K, 10930 kPa, x1 = 0.0102	578
322.7 K, 11040 kPa, x1 = 0.0102	589
322.7 K, 11140 kPa, x1 = 0.0102	600
322.7 K, 11270 kPa, x1 = 0.0102	612
322.7 K, 11430 kPa, x1 = 0.0102	624
322.7 K, 11460 kPa, x1 = 0.0247	701
322.7 K, 11570 kPa, x1 = 0.0247	706
322.7 K, 11610 kPa, x1 = 0.0102	636
322.7 K, 11730 kPa, x1 = 0.0247	712
322.7 K, 11810 kPa, x1 = 0.0102	649
322.7 K, 11910 kPa, x1 = 0.0247	719
322.7 K, 12030 kPa, x1 = 0.0102	663
322.7 K, 12090 kPa, x1 = 0.0247	726
322.7 K, 12300 kPa, x1 = 0.0102	677
322.7 K, 12300 kPa, x1 = 0.0247	733
322.7 K, 12520 kPa, x1 = 0.0247	740
322.7 K, 12640 kPa, x1 = 0.0102	692
322.7 K, 12750 kPa, x1 = 0.0247	747
